Values joined by “and” are separate entries in the source; they are usually repeats but may differ in a detail not shown here. Identical values can stand only once.
Assays:
[1] = target: Ophiocordyceps sp. BRM1 eIF4A iso4 Gly172His; assay: Fluorescence polarization assay, FAM-labeled [AG]10 RNA and recombinant eIF4A; type: binding; conditions: for Fluorescence polarization signal, FAM-labeled [AG]10 RNA, single replicates / Fluorescence polarization signal, FAM-labeled [AG]10 RNA, Mean: ADP + Pi, aglafoline; for Fluorescence polarization signal, FAM-labeled [AG]10 RNA, single replicates: Replicate 1-3; for Fluorescence polarization signal, FAM-labeled [AG]10 RNA, Mean: mean of 3 replicates
Description: (§1) The fluorescence polarization assay was performed as previously described ([Chen et al., 2021]). […] After incubation at room temperature for 30 min, the mixture was transferred to a black 384-well microplate (Corning), and the fluorescence polarization was measured by an Infinite F-200 PRO (Tecan). Under ADP + Pi conditions, 1 mM ADP (Fujifilm Wako Chemicals) and 1 mM Na2HPO4 were used as substitutes for AMP-PNP. The data were fitted to the Hill equation to calculate Kd values and visualized by Igor Pro v8.01 (WaveMetrics).

[2] = target: Ophiocordyceps sp. BRM1 eIF4A iso4 Gly172Phe; assay: as above; type: binding; conditions: for Fluorescence polarization, Replicate 1-3 / fluorescence polarization, Mean: [AG]10 RNA, ADP + Pi, Aglafoline
Description: as §1

[3] = target: Ophiocordyceps sp. BRM1 eIF4A iso4 WT Gly172; assay: as above; type: binding; conditions: for Fluorescence polarization signal, FAM-labeled [AG]10 RNA, single replicates / Fluorescence polarization signal, FAM-labeled [AG]10 RNA, Mean: ADP + Pi, aglafoline; for Fluorescence polarization signal, FAM-labeled [AG]10 RNA, single replicates: Replicate 1-3; for Fluorescence polarization signal, FAM-labeled [AG]10 RNA, Mean: mean of 3 replicates
Description: as §1

C. sativus leaves = assay: Morphology of cucumber leaves sprayed with aglafoline; type: in vivo, Cucumis sativus; conditions: aglafoline 1 µM in water sprayed, 3 days
Description: Figure 4. Phenotypic comparison of the C. orbiculare eIF4A^WT and eIF4A^His153Gly strains during infection in the presence of rocaglate. (A) Workflow for monitoring the biomass of C. orbiculare eIF4A^WT or eIF4A^His153Gly strains on cucumber leaves under treatment with aglafoline. (B) Comparison of in planta fungal biomass of C. orbiculare eIF4A^WT or eIF4A^His153Gly strains with or without treatment with 1 µM aglafoline. Relative expression levels of the C. orbiculare 60 S ribosomal protein L5 gene (GenBank: Cob_v012718) normalized to that of a cucumber cyclophilin gene (GenBank: AY942800.1) were determined by RT–qPCR at 3 dpi (n = 8). The relative fungal biomasses of C. orbiculare were normalized to those of eIF4A^WT without aglafoline. Significance was calculated by Student’s t-test (two-tailed). […] Figure 4—source data 1. Files for the primary data corresponding to Figure 4B. Figure 4—figure supplement 1. Characterization of cucumber leaves treated with aglafoline. (A) C. sativus leaves were sprayed with DMSO or aglafoline (1 µM) in water and incubated for 3 days using the same method as C. orbiculare inoculation. Figure 4—figure supplement 1—source data 1. Files for the full and unedited pictures corresponding to Figure 4—figure supplement 1A. [drawing 12]

[4] = [AG]10 10 nM, ADP + Pi (1 mM each), compound 50 µM, read-out: Kd between eIF4A protein and RNA

COC(=O)[C@H]1[C@@H](O)[C@@]2(O)c3c(OC)cc(OC)cc3O[C@@]2(c2ccc(OC)cc2)[C@@H]1c1ccccc1 [Aglafoline, methyl rocaglate]
Kd [1, 4]: 1500 ± 140 nM | Fluorescence polarization signal, FAM-labeled [AG]10 RNA, single replicates ([1]; protein concentration 0.01 μM): -0.03825 and 0.04372 (2×) | Fluorescence polarization signal, FAM-labeled [AG]10 RNA, Mean ([1]; protein concentration 0.01 μM): 0.01639 | Fluorescence polarization signal, FAM-labeled [AG]10 RNA, single replicates ([1]; protein concentration 0.05 μM): 0.04372 and 0.1011 and 0.0765 | Fluorescence polarization signal, FAM-labeled [AG]10 RNA, Mean ([1]; protein concentration 0.05 μM): 0.07377 | Fluorescence polarization signal, FAM-labeled [AG]10 RNA, single replicates ([1]; protein concentration 0.075 μM): 0.0847 and 0.06011 and 0.03552 | Fluorescence polarization signal, FAM-labeled [AG]10 RNA, Mean ([1]; protein concentration 0.075 μM): 0.06011 | Fluorescence polarization signal, FAM-labeled [AG]10 RNA, single replicates ([1]; protein concentration 0.1 μM): 0.0847 and 0.06011 and 0.06831 | Fluorescence polarization signal, FAM-labeled [AG]10 RNA, Mean ([1]; protein concentration 0.1 μM): 0.07104 | Fluorescence polarization signal, FAM-labeled [AG]10 RNA, single replicates ([1]; protein concentration 0.5 μM): 0.3388 and 0.429 and 0.3634 | Fluorescence polarization signal, FAM-labeled [AG]10 RNA, Mean ([1]; protein concentration 0.5 μM): 0.377 | Fluorescence polarization signal, FAM-labeled [AG]10 RNA, single replicates ([1]; protein concentration 0.75 μM): 0.5191 and 0.4372 and 0.429 | Fluorescence polarization signal, FAM-labeled [AG]10 RNA, Mean ([1]; protein concentration 0.75 μM): 0.4617 | Fluorescence polarization signal, FAM-labeled [AG]10 RNA, single replicates ([1]; protein concentration 1 μM): 0.5765 and 0.7158 and 0.5847 | Fluorescence polarization signal, FAM-labeled [AG]10 RNA, Mean ([1]; protein concentration 1 μM): 0.6257 | Fluorescence polarization signal, FAM-labeled [AG]10 RNA, single replicates ([1]; protein concentration 5 μM): 1.011 and 0.9208 and 0.888 | Fluorescence polarization signal, FAM-labeled [AG]10 RNA, Mean ([1]; protein concentration 5 μM): 0.9399 | Fluorescence polarization signal, FAM-labeled [AG]10 RNA, single replicates ([1]; protein concentration 7.5 μM): 1.019 and 0.9372 and 0.9699 | Fluorescence polarization signal, FAM-labeled [AG]10 RNA, Mean ([1]; protein concentration 7.5 μM): 0.9754 | Fluorescence polarization signal, FAM-labeled [AG]10 RNA, single replicates ([1]; protein concentration 10 μM): 1.126 and 1.06 and 1.027 | Fluorescence polarization signal, FAM-labeled [AG]10 RNA, Mean ([1]; protein concentration 10 μM): 1.071 | Fluorescence polarization signal, FAM-labeled [AG]10 RNA, single replicates ([1]; protein concentration 25 μM): 1.208 and 1.167 and 1.15 | Fluorescence polarization signal, FAM-labeled [AG]10 RNA, Mean ([1]; protein concentration 25 μM): 1.175 | Fluorescence polarization signal, FAM-labeled [AG]10 RNA, single replicates ([1]; protein concentration 50 μM): 1.191 and 1.306 and 1.257 | Fluorescence polarization signal, FAM-labeled [AG]10 RNA, Mean ([1]; protein concentration 50 μM): 1.251 | Kd [2, 4]: 110 ± 21 nM | Fluorescence polarization, Replicate 1-3 ([2]; protein concentration 0.01 μM): 0.1148 and 0.008197 and 0.04098 | fluorescence polarization, Mean ([2]; protein concentration 0.01 μM): 0.05464 | Fluorescence polarization, Replicate 1-3 ([2]; protein concentration 0.05 μM): 0.2869 (2×) and 0.3279 | fluorescence polarization, Mean ([2]; protein concentration 0.05 μM): 0.3005 | Fluorescence polarization, Replicate 1-3 ([2]; protein concentration 0.075 μM): 0.3689 and 0.3279 and 0.2869 | fluorescence polarization, Mean ([2]; protein concentration 0.075 μM): 0.3279 | Fluorescence polarization, Replicate 1-3 ([2]; protein concentration 0.1 μM): 0.5164 and 0.3115 and 0.2787 | fluorescence polarization, Mean ([2]; protein concentration 0.1 μM): 0.3689 | Fluorescence polarization, Replicate 1-3 ([2]; protein concentration 0.5 μM): 0.9262 and 0.9426 and 0.8197 | fluorescence polarization, Mean ([2]; protein concentration 0.5 μM): 0.8962 | Fluorescence polarization, Replicate 1-3 ([2]; protein concentration 0.75 μM): 0.9508 and 0.8443 and 0.8934 | fluorescence polarization, Mean ([2]; protein concentration 0.75 μM): 0.8962 | Fluorescence polarization, Replicate 1-3 ([2]; protein concentration 1 μM): 0.7869 and 0.877 and 0.7623 | fluorescence polarization, Mean ([2]; protein concentration 1 μM): 0.8087 | Fluorescence polarization, Replicate 1-3 ([2]; protein concentration 5 μM): 0.9016 and 0.9426 and 0.8852 | fluorescence polarization, Mean ([2]; protein concentration 5 μM): 0.9098 | Fluorescence polarization, Replicate 1-3 ([2]; protein concentration 7.5 μM): 0.8934 and 1.016 and 0.9344 | fluorescence polarization, Mean ([2]; protein concentration 7.5 μM): 0.9481 | Fluorescence polarization, Replicate 1-3 ([2]; protein concentration 10 μM): 1.057 and 0.8934 and 0.877 | fluorescence polarization, Mean ([2]; protein concentration 10 μM): 0.9426 | Fluorescence polarization, Replicate 1-3 ([2]; protein concentration 25 μM): 0.8852 and 1.033 and 1.057 | fluorescence polarization, Mean ([2]; protein concentration 25 μM): 0.9918 | Kd [3, 4]: 2600 ± 400 nM | Fluorescence polarization signal, FAM-labeled [AG]10 RNA, single replicates ([3]; protein concentration 0.01 μM): 0.02459 and 0.04098 and 0.008197 | Fluorescence polarization signal, FAM-labeled [AG]10 RNA, Mean ([3]; protein concentration 0.01 μM): 0.02459 | Fluorescence polarization signal, FAM-labeled [AG]10 RNA, single replicates ([3]; protein concentration 0.05 μM): 0.03279 and -0.008197 and -0.07377 | Fluorescence polarization signal, FAM-labeled [AG]10 RNA, Mean ([3]; protein concentration 0.05 μM): -0.01639 | Fluorescence polarization signal, FAM-labeled [AG]10 RNA, single replicates ([3]; protein concentration 0.075 μM): -0.04918 and -0.03279 and 0.01639 | Fluorescence polarization signal, FAM-labeled [AG]10 RNA, Mean ([3]; protein concentration 0.075 μM): -0.02186 | Fluorescence polarization signal, FAM-labeled [AG]10 RNA, single replicates ([3]; protein concentration 0.1 μM): -0.02459 and -0.04098 and -0.05738 | Fluorescence polarization signal, FAM-labeled [AG]10 RNA, Mean ([3]; protein concentration 0.1 μM): -0.04098 | Fluorescence polarization signal, FAM-labeled [AG]10 RNA, single replicates ([3]; protein concentration 0.5 μM): 0.1557 and -0.1066 and 0.01639 | Fluorescence polarization signal, FAM-labeled [AG]10 RNA, Mean ([3]; protein concentration 0.5 μM): 0.02186 | Fluorescence polarization signal, FAM-labeled [AG]10 RNA, single replicates ([3]; protein concentration 0.75 μM): 0.1967 and 0.03279 and 0.1721 | Fluorescence polarization signal, FAM-labeled [AG]10 RNA, Mean ([3]; protein concentration 0.75 μM): 0.1339 | Fluorescence polarization signal, FAM-labeled [AG]10 RNA, single replicates ([3]; protein concentration 1 μM): 0.09836 and 0.06557 and 0.1557 | Fluorescence polarization signal, FAM-labeled [AG]10 RNA, Mean ([3]; protein concentration 1 μM): 0.1066 | Fluorescence polarization signal, FAM-labeled [AG]10 RNA, single replicates ([3]; protein concentration 5 μM): 0.582 and 0.6803 and 0.5902 | Fluorescence polarization signal, FAM-labeled [AG]10 RNA, Mean ([3]; protein concentration 5 μM): 0.6175 | Fluorescence polarization signal, FAM-labeled [AG]10 RNA, single replicates ([3]; protein concentration 7.5 μM): 0.5902 and 0.6311 and 0.7541 | Fluorescence polarization signal, FAM-labeled [AG]10 RNA, Mean ([3]; protein concentration 7.5 μM): 0.6585 | Fluorescence polarization signal, FAM-labeled [AG]10 RNA, single replicates ([3]; protein concentration 10 μM): 0.6557 and 0.7049 and 0.7131 | Fluorescence polarization signal, FAM-labeled [AG]10 RNA, Mean ([3]; protein concentration 10 μM): 0.6913 | Fluorescence polarization signal, FAM-labeled [AG]10 RNA, single replicates ([3]; protein concentration 25 μM): 0.7787 and 0.8279 and 0.877 | Fluorescence polarization signal, FAM-labeled [AG]10 RNA, Mean ([3]; protein concentration 25 μM): 0.8279 | morphological alteration of cucumber leaves (C. sativus leaves): no morphological alteration of the leaves was observed

— publication PMC9977294, “A parasitic fungus employs mutated eIF4A to survive on rocaglate-synthesizing Aglaia plants” (eLife, 2023)
